{
  "source": "patent US20140004177A1",
  "about": "“COX-2 INHIBITORS AND RELATED COMPOUNDS, AND SYSTEMS AND METHODS FOR DELIVERY THEREOF” (Strategic Science & Technologies, LLC, priority 2010, published 2014)",
  "origin": "cited, not measured here",
  "data": [
    {"smiles": "CS(=O)(=O)c1ccc(C2=C(c3ccccc3)C(=O)OC2)cc1", "note": "[rofecoxib]", "values": [
      {"measurement": "pKa", "result": 19.7}
    ]}
  ]
}
